The record followed here is patent publication US10428083B2, “Heterocyclylmethyl-thienouracile as antagonists of the adenosine-A2B-receptor” (BAYER PHARMA AKTIENGESELLSCHAFT, priority 2015, dated 2019).

In the test the target is human adenosine A2b receptor (Homo sapiens (Human), UniProt P29275). As to the kind of experiment: Cellular in vitro reporter gene test for A2b receptor activity (CHO-K1, CRE-luciferase, NECA stimulation). The test is classed as cell-based. The settings on record: recombinant CHO-K1 cell line, CRE-luciferase reporter, antagonism of EC50 concentration of NECA; in some cases means of several determinations, rounded to two significant figures; read-out: A2b receptor IC50. A digest of the protocol: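 CHO-K1 cells with CRE-driven luciferase; antagonists co-incubated with NECA at its EC50, determined in a pre-experiment on each test day. Luciferase read by luminescence 3 h after NECA addition.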
Sequence of human adenosine A2b receptor (P29275 whole entry): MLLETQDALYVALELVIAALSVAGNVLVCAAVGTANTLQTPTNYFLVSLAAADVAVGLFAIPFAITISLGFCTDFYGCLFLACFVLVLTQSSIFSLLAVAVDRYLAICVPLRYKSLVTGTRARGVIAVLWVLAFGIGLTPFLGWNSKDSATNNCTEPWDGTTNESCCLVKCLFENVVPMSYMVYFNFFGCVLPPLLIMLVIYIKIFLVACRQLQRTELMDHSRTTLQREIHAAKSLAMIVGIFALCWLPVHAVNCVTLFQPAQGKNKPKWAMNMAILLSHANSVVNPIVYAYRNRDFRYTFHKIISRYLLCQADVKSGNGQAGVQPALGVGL
(In a reporter assay the amount or activity of a reporter protein is the signal.)
On to `CCn1c(=O)c2c(C)c(CN3CCNC3=O)sc2n(CC2CCOC2)c1=O` (racemic) [Example 73, 3-Ethyl-5-methyl-6-[(2-oxoimidazolidin-1-yl)methyl]-1-(tetrahydrofuran-3-ylmethyl)thieno[2,3-d]pyrimidine-2,4(1H,3H)-dione (racemate)], for which the IC50 (usually the concentration that inhibits the measured activity by half) came to 79 nM.

With `CCn1c(=O)c2c(C)c(CN3CCNC3=O)sc2n(CCS(C)(=O)=O)c1=O` [Example 310, 3-Ethyl-5-methyl-1-[2-(methylsulphonyl)ethyl]-6-[(2-oxoimidazolidin-1-yl)methyl]thieno[2,3-d]pyrimidine-2,4(1H,3H)-dione], the IC50 came to 370 nM.

Consider `COCCn1c(=O)n(CC(F)(F)F)c(=O)c2c(C)c(CN3CCNC3=S)sc21` [Example 41, 1-(2-Methoxyethyl)-5-methyl-6-[(2-thioxoimidazolidin-1-yl)methyl]-3-(2,2,2-trifluoroethyl)thieno[2,3-d]pyrimidine-2,4(1H,3H)-dione], for which the IC50 was determined as 12 nM.

For `COCCn1c(=O)n(CCC(F)(F)F)c(=O)c2c(C)c(CN3CCN(C)C3=O)sc21` [Example 337, 1-(2-Methoxyethyl)-5-methyl-6-[(3-methyl-2-oxoimidazolidin-1-yl)methyl]-3-(3,3,3-trifluoropropyl)thieno[2,3-d]pyrimidine-2,4(1H,3H)-dione], the IC50 turned out to be 280 nM.

For the compound `CCn1c(=O)c2c(C)c(CN3C(=O)CNC3=O)sc2n(CCOC(F)(F)F)c1=O` [Example 106, 6-[(2,5-Dioxoimidazolidin-1-yl)methyl]-3-ethyl-5-methyl-1-[2-(trifluoromethoxy)ethyl]thieno[2,3-d]pyrimidine-2,4(1H,3H)-dione], the IC50 worked out at 9.2 nM.

As to `COCCn1c(=O)n(CC(C)(C)C)c(=O)c2c(C)c(CN3CCNC3=S)sc21` [Example 151, 3-(2,2-Dimethylpropyl)-1-(2-methoxyethyl)-5-methyl-6-[(2-thioxoimidazolidin-1-yl)methyl]thieno[2,3-d]pyrimidine-2,4(1H,3H)-dione], the 50% inhibitory concentration (IC50) was 5.7 nM.

Turning to `CCCCn1c(=O)n(CC)c(=O)c2c(C)c(CN3CCNC3=O)sc21` [Example 78, 1-Butyl-3-ethyl-5-methyl-6-[(2-oxoimidazolidin-1-yl)methyl]thieno[2,3-d]pyrimidine-2,4(1H,3H)-dione], the IC50 came out at 1.2 nM.

Take `CCn1c(=O)c2c(C)c(CN3CCNC3=O)sc2n(CC2CCC2)c1=O` [Example 80, 1-(Cyclobutylmethyl)-3-ethyl-5-methyl-6-[(2-oxoimidazolidin-1-yl)methyl]thieno[2,3-d]pyrimidine-2,4(1H,3H)-dione]: the IC50 is 1.4 nM.

Take `CCn1c(=O)c2c(C)c(CN3CC(=O)NCC3=O)sc2n(CCC(F)(F)F)c1=O` [Example 497, 6-[(2,5-Dioxopiperazin-1-yl)methyl]-3-ethyl-5-methyl-1-(3,3,3-trifluoropropyl)thieno[2,3-d]pyrimidine-2,4(1H,3H)-dione]: the IC50 was 730 nM.

As to `Cc1c(CN2CCNC2=S)sc2c1c(=O)n(CC(F)F)c(=O)n2CCCF` [Example 42, 3-(2,2-Difluoroethyl)-1-(3-fluoropropyl)-5-methyl-6-[(2-thioxoimidazolidin-1-yl)methyl]thieno[2,3-d]pyrimidine-2,4(1H,3H)-dione], the IC50 came out at 11 nM.

Turning to `CCOCCn1c(=O)n(CC(C)C)c(=O)c2c(C)c(CN3CCNC3=S)sc21` [Example 145, 1-(2-Ethoxyetyl)-3-isobutyl-5-methyl-6-[(2-thioxoimidazolidin-1-yl)methyl]thieno[2,3-d]pyrimidine-2,4(1H,3H)-dione], the 50% inhibitory concentration (IC50) was found to be 14 nM.

For `Cc1c(CN2CCNC2=S)sc2c1c(=O)n(CC(C)C)c(=O)n2CCCF` [Example 144, 1-(3-Fluoropropyl)-3-isobutyl-5-methyl-6-[(2-thioxoimidazolidin-1-yl)methyl]thieno[2,3-d]pyrimidine-2,4(1H,3H)-dione], the IC50 was found to be 1.5 nM.
